Experimental data taken from patent US20160022606A1, “NOVEL THERAPY FOR PROSTATE CARCINOMA” (PELLFICURE PHARMACEUTICALS INC., priority 2013, published 2016).

Key:
TRAMP-C2 cells = assay: Incidence of MI, AP and PY in TRAMP-C2 cells (H2B-GFP) by fluorescent microscopy; assay type: cell-based, mouse; conditions: for AP (×10^−3) / MI (×10^−3) / PY (×10^−3): RPMI without phenol red, no FCS
From the text: At each time point, two peripheral and two central ×20 fields of the tumor are captured with a FITC filter and an integrated frame grabber. Only mitotic figures in metaphase-telophase (MI) are included in the mitotic indices to exclude the potential artifact of nuclear membrane distortion. Apoptotic/Pyknotic nuclei are defined as H2B-GFP labeled nuclei with a cross sectional area <30 μm^2. Nuclear karyorrhexis (NK), easily distinguishable by the vesicular nuclear condensation and brightness of H2BGFP, is included within this apoptotic indices.
For example, TRAMP-C2 cells (transfected with H2B-GFP) were plated at 2.08×10^4 cells/cm^2 density in complete RPMI medium (10% of heat-inactivated FCS, 10^−8 M DHT, 5 μg/ml insulin, 6 ng/ml EGF, 100 U/ml penicillin, 100 μg/ml streptomycin, 2 mM L-glutamine) and grown at 37° C. in a humidified 5% CO2 atmosphere overnight. The cells were 3× washed with PBS and medium was replaced for RPMI medium without phenol red and without FCS. One set of cells had no DHT, the other set was incubated in the presence of DHT 10^−8 M overnight. 24 h later, the medium was replaced for medium (RPMI without phenol red, no FCS) containing increasing concentrations of plumbagin in the range 0-1 μM with DHT 10^−8 M or without DHT. 24 h later the incidence of MI, AP, and PY was evaluated by fluorescent microscopy.

[1] = system: hormone-refractory prostate cancer; conditions: Aziz et al., Cancer Res. 2008; cited from earlier work
tubulin [2] = conditions: Acharya et al., Biochemistry 2008; cited from earlier work
[3] = system: P388 lymphocytic leukemia; conditions: in vivo; cited from earlier work
prostate carcinoma cells = conditions: plumbagin 5 umol/L; cited from earlier work
fibrosarcomas = conditions: in vivo; cited from earlier work
hepatoma = conditions: in vivo; cited from earlier work
[4] = assay type: physicochemical
Protocol: Plumbagin was formulated as an inclusion complex with heptakis(2,6-di-O-methyl)-beta-cyclodextrin. In brief, a super-saturated solution of plumbagin in 0.1M of heptakis(2,6-di-O-methyl)-beta-cyclodextrin was stirred for 72 hours at 25+/−0.5° C. Then the mixture was filtered through a 0.2 µm nylon membrane filter. The concentration of solubilized plumbagin has been determined by UV-VIS spectroscopy (Amax(263 nm and 417 nm)).

tubulin [5] = conditions: Acharya et al., Biochemistry 2008; cited from earlier work; remark: listed apart in the source

For `C[C@]12CCC(=O)C[C@@H]1CC[C@@H]1[C@@H]2CC[C@]2(C)[C@@H](O)CC[C@@H]12` [DHT, dihydrotestosterone, reference compound], the “AP (×10^−3)” value (TRAMP-C2 cells; DHT 0.01 μM) was 13.8 ×10^−3, the “MI (×10^−3)” value (TRAMP-C2 cells; DHT 0.01 μM) was 4.911 ×10^−3 and the “PY (×10^−3)” value (TRAMP-C2 cells; DHT 0.01 μM) was 0.8681 ×10^−3.

In the case of `CC1=CC(=O)c2c(O)cccc2C1=O` [Plumbagin, 5-hydroxy-2-methylnaphthalene-1,4-dione], the “effect on hormone-refractory prostate cancer” value [1] is given as “inhibited growth and invasion of hormone-refractory prostate cancer”, the tubulin binding site (tubulin [2]) is given as “recognizes the colchicine binding site of tubulin” and the “ED50 anticancer effect toward P388 lymphocytic leukemia” value [3] is given as 4 mg/kg body weight. The “expression of PKCq, PI3K, AKT, activation of AP-1, NF-κB, Stat3” value (prostate carcinoma cells) was “inhibit expression of multiple molecular targets”, the “induction of cell cycle entry / mitosis compared with DHT” value (TRAMP-C2 cells; 0.6 μM of plumbagin vs DHT at 10^−8 M) was “much more effectively than DHT at 10^−8 M” and the “AP (×10^−3)” value (TRAMP-C2 cells; plumbagin 0.4 μM, 24 h) was 8.852 ×10^−3. The “MI (×10^−3)” value (TRAMP-C2 cells; plumbagin 0.4 μM, 24 h) was 8.89 ×10^−3, the “PY (×10^−3)” value (TRAMP-C2 cells; plumbagin 0.4 μM, 24 h) was 20.495 ×10^−3 and the “AP (×10^−3)” value (TRAMP-C2 cells; plumbagin 0.6 μM, 24 h) was 9.371 ×10^−3. The “MI (×10^−3)” value (TRAMP-C2 cells; plumbagin 0.6 μM, 24 h) was 14.81 ×10^−3, the “PY (×10^−3)” value (TRAMP-C2 cells; plumbagin 0.6 μM, 24 h) was 16.76 ×10^−3 and the “AP (×10^−3)” value (TRAMP-C2 cells; plumbagin 0.8 μM, 24 h) was 16.11 ×10^−3. For the same compound, the “MI (×10^−3)” value (TRAMP-C2 cells; plumbagin 0.8 μM, 24 h) was 12.7 ×10^−3, the “PY (×10^−3)” value (TRAMP-C2 cells; plumbagin 0.8 μM, 24 h) was 16.73 ×10^−3 and the “AP (×10^−3)” value (TRAMP-C2 cells; plumbagin 1 μM, 24 h) was 14.22 ×10^−3. The “MI (×10^−3)” value (TRAMP-C2 cells; plumbagin 1 μM, 24 h) was 7.285 ×10^−3, the “PY (×10^−3)” value (TRAMP-C2 cells; plumbagin 1 μM, 24 h) was 8.244 ×10^−3 and the “ED50 anticancer effect toward fibrosarcomas” value (fibrosarcomas) was 0.75 mg/kg body weight. For the same compound, the effect on hepatoma (hepatoma) was “induced regression of hepatoma”, the “K1:1 (phase-solubility diagram analysis)” value [4] was 485 M⁻¹ and the “in vitro tubulin polymerization” value (tubulin [5]) was “inhibits in vitro tubulin polymerization”.
